Patent US20190119348A1, “PARATHYROID HORMONE RECEPTOR 1 ANTAGONIST AND INVERSE AGONIST POLYPEPTIDES AND METHODS OF THEIR USE” (The General Hospital Corporation, priority 2016, published 2019)
Read-outs that look alike come from different tables or passages of the source. One block for each compound: values may come before it. Where a SMILES comes first, the peptide text is derived from it. [ ]: non-standard residue; d: D form. The star is where a group is joined. 5TAMRA = CN(C)c1ccc2c(c1)Oc1cc(N(C)C)ccc1C21OC(=O)c2cc(C(=O)*)ccc21

How the values were obtained:
endogenous hPTHR1 = biological target: T1, endogenous hPTHR1 (Homo sapiens, UniProt Q03431); test: Antagonism of PTH(1-34)- and PTHrP(1-36)-induced cAMP response (GloSensor) in SGS-72 cells; format: cell-based
T1 construct: Saos-2, in which is endogenously expressed the hPTHR1; endogenous in cells
T1 sequence (Q03431 27-593): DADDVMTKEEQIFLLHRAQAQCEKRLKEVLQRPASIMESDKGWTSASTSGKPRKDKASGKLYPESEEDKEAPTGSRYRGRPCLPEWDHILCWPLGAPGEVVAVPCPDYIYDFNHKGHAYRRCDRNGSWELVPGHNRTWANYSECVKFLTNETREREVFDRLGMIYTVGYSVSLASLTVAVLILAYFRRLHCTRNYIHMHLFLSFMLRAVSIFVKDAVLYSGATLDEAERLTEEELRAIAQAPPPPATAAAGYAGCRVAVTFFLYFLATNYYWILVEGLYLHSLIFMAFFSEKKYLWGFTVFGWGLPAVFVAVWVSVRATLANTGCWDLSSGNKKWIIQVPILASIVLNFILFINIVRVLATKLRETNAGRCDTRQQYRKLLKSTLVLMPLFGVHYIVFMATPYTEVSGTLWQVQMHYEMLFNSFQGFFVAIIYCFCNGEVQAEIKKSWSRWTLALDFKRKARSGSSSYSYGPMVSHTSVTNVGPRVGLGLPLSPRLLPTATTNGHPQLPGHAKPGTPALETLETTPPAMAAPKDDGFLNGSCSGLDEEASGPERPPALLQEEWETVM
Description: cAMP signaling was assessed in the HEK293-derived or SaOS2-derived cell lines stably expressing the luciferase-based GloSensorTM cAMP reporter ([…] al., Paper presented at: Novel Signaling Mechanisms and Bone Cell Biology 2014; Binkowski et al., Methods in molecular biology. 756:263-271). HEK-293 cells were further transfected to stably express the hPTHR1, hPTHR1-H223R, or hPTHR1-T410P. The cells were seeded into 96-well white plates and were assayed 24 to 48 hours post-confluency. Assays were performed at room temperature in CO2-independent culture media (Life Technologies, Corp., Carlsbad, Calif.) containing 0.1% BSA (CIDB). The cells were pre-loaded with luciferin (0.5 mM in CIDB) for 15 minutes, then PTH peptides were added at varying concentrations. cAMP-dependent luminescence was measured at two-minute intervals using a PerkinElmer Envision plate reader. The time at which maximum luminescence (cps) observed with agonist alone, typically at 10-20 minutes after agonist addition, was used to obtain data from wells containing antagonist with or without agonist, to thus generate antagonist ligand dose-response curves. The resulting cps values were then plotted against ligand concentration using GraphPad Prism 7.0 software and a four-parameter logistics curve fitting equation, which yielded parameters of inhibitory potency (pIC50). Pharmacological properties of the ligands were assessed in cells expressing the PTHR1 and the GloSensorTM cAMP reporter. The assays used GP-2.3 cells, derived from HEK293 cells by stable transfection with the hPTHR1 and GloSensorTM, as well as SGS-72 cells, which are derived from the human osteosarcoma cell line, Saos-2, in which is endogenously expressed the hPTHR1, by stable transfection with GloSensorTM. Binding of representative polypeptides to the PTHR1 was assessed in GP-2.3 cells by radioligand competition methods (FIGS. 1A and 1B, Table 3). […] In Table 5, antagonist assays were performed in SGS-72 cells (SaOS2 cells with stable GloSensorTM cAMP reporter) at room temperature. […] The mean (±sem) concentration of antagonist that inhibited the maximum agonist-induced response observed in the absence of antagonist (at 40 minutes) is reported in units of -log M (pIC50), and the corresponding nanomolar value is shown below each pIC50 value. Data are means of the number of seven experiments. The PTH(1-34)-induced maximum luminescence was 500,000 cps and the basal was 5,000 cps. TMR indicates Lys13 modified at epsilon amino function with TMR. The data are illustrated in FIG. 7A. […] Date are means (±SEM) of the number of separate experiments indicated by n.

PTHR1 [1] = biological target: T2, PTHR1 (Homo sapiens, UniProt Q03431); test: Residual agonist activity, cAMP luminescence in GP-2.3 cells; format: cell-based; settings: ligands applied directly to GP-2.3 cells
T2 construct: expressed in transfected cells; host or cells: GP-2.3 (HEK-293 stably transfected with hPTHR1 and GloSensor)
T2 sequence (Q03431 27-593): T1 sequence (Q03431 27-593)
Description: (§1) cAMP signaling was assessed in the HEK293-derived or SaOS2-derived cell lines stably expressing the luciferase-based GloSensor™ cAMP reporter (Hattersley et al., Paper presented at: Novel Signaling Mechanisms and Bone Cell Biology 2014; Binkowski et al., Methods in molecular biology. 756:263-271). HEK-293 cells were further transfected to stably express the hPTHR1, hPTHR1-H223R, or hPTHR1-T410P. The cells were seeded into 96-well white plates and were assayed 24 to 48 hours post-confluency. Assays were performed at room temperature in CO2-independent culture media (Life Technologies, Corp., Carlsbad, Calif.) containing 0.1% BSA (CIDB). The cells were pre-loaded with luciferin (0.5 mM in CIDB) for 15 minutes, then PTH peptides were added at varying concentrations. cAMP-dependent luminescence was measured at two-minute intervals using a PerkinElmer Envision plate reader. The time at which maximum luminescence (cps) observed with agonist alone, typically at 10-20 minutes after agonist addition, was used to obtain data from wells containing antagonist with or without agonist, to thus generate antagonist ligand dose-response curves. The resulting cps values were then plotted against ligand concentration using GraphPad Prism 7.0 software and a four-parameter logistics curve fitting equation, which yielded parameters of inhibitory potency (pIC50).

PTHR1 [2] = biological target: T2, PTHR1; test: Antagonism of PTH(1-34)-induced cAMP response (GloSensor) in GP-2.3 cells; format: cell-based; settings: PTH(1-34) 1 nM
Description: as §1
(§2) Pharmacological properties of the ligands were assessed in cells expressing the PTHR1 and the GloSensor™ cAMP reporter. The assays used GP-2.3 cells, derived from HEK293 cells by stable transfection with the hPTHR1 and GloSensor™, as well as SGS-72 cells, which are derived from the human osteosarcoma cell line, Saos-2, in which is endogenously expressed the hPTHR1, by stable transfection with GloSensor™. Binding of representative polypeptides to the PTHR1 was assessed in GP-2.3 cells by radioligand competition methods (FIGS. 1A and 1B, Table 3).
[…] concentration of antagonist that inhibited the maximum response to PTH(1-34)-induced in the absence of antagonist (at ˜40 minutes) is reported in units of -log M (pIC50), and the corresponding nanomolar value is shown below each pIC50 value. Data are means of the number of experiments indicated (n). The PTH(1-34)-induced maximum luminescence was ˜80,000 cps and the basal was ˜1,000 cps. TMR indicates Lys13 modified at epsilon amino function with TMR, P vs. inhibition by dW12,Y34-bPTH(7-34).

PTHR1 (hPTHR1) = biological target: T3, PTHR1 (hPTHR1) (Homo sapiens, UniProt Q03431); test: Radioligand competition binding in GP-2.3 cells; settings: radioligand competition
T3 construct: expressed in transfected cells; host or cells: GP-2.3 (HEK-293 stably transfected with hPTHR1 and GloSensor)
T3 sequence (Q03431 27-593): T1 sequence (Q03431 27-593)
Description: (§3) Intact cell binding reactions were performed in 96-well plates, and, following incubation, the cells were lysed with 1N NaOH, and the lysate was counted for gamma radiation. For membrane dissociation assays, reactions were assembled in 15 cc tubes, and, at times following membrane addition (t=0), aliquots were withdrawn and filtered through a well of a vacuum filtration 96-well plate, rinsed, and, after washing, the filters were removed and counted for gamma irradiation. […] Curves were fit to the data using a four-parameter sigmoidal dose-response equation.
as §2
The assays were performed in GP-2.3 cells with the two tracer ^125I-radioligands shown; values are half-maximal inhibitory concentration (pIC50) and corresponding nanomolar value (below) derived from curve fitting ligand dose-response data. Data are means of four experiments.

PTHR1 [3] = biological target: T2, PTHR1; test: Confocal microscopy of TMR-ligand internalization in GP-2.3 cells; format: cell-based; settings: 15 minutes after ligand addition (100 nM)
Description: Confocal fluorescence microscopy images were acquired using Olympus FV-1000 MPE confocal system (Center Valley, Pa. 18034), performed by the Photopathology Core facility of the Wellman Center for Photomedicine at the Massachusetts General Hospital. Images were captured with a 40× (LUMPLFL 0.8NA WD 3.3 mm) water-immersion objective, and with 405 nm and 559 nm excitation lasers, at a resolution of 1024×1024.
The cells were cultured on glass cover-slips in 24-well plates to ˜75% of confluency, then treated with PTH^TMR ligand (100 nM) in Hank's balanced salts buffer with 0.1% BSA (HBB) for 15 minutes at room temperature, then rinsed thrice with HBB, fixed with 4% formalin for 5 minutes, mounted with vector-shield containing DAPI on a glass microscope slide, viewed on the microscope, and digitally imaged.

PTHR1 [4] = biological target: T2, PTHR1; test: PTHR1 binding kinetics (dissociation) in GP-2.3 cell membranes
Description: as §3, with “Ligand binding to the PTH1 R was assessed in intact GP-2.3 cells or membranes prepared from GP-2.3 cells using a ^125I-PTH peptide analog as tracer radioligand and were incubated at room temperature for 90 minutes. Intact” for “Intact”

fold more effective inhibition than dTrp^12-PTH(7-34)-1894 (endogenous hPTHR1; PTH(1-34) 0.3 nM): ~30 fold
IC50 (endogenous hPTHR1; antagonist pre-treatment 10 minutes, PTHrP(1-36) 0.3 nM, seven experiments, read-out: corresponding nanomolar value vs. PTHrP(1-36) (Table 5)): 1 nM
IC50 (endogenous hPTHR1; antagonist pre-treatment 10 minutes, PTHrP(1-36) 0.3 nM, seven experiments, read-out: pIC50 vs. PTHrP(1-36) (Table 5) (converted)): 0.871 nM
IC50 (endogenous hPTHR1; corresponding nanomolar value vs. PTH(1-34) (Table 5), antagonist pre-treatment 10 minutes, PTH(1-34) 0.3 nM, seven experiments): 1 nM
IC50 (endogenous hPTHR1; pIC50, inhibition of cAMP signal induced by PTH(1-34), PTH(1-34) 0.3 nM): 2.51 nM
IC50 (endogenous hPTHR1; pIC50 vs. PTH(1-34) (Table 5), antagonist pre-treatment 10 minutes, PTH(1-34) 0.3 nM, seven experiments): 0.832 nM
residual agonist activity compared with dTrp^12-PTH(7-34)-1894 (PTHR1 [1]): less residual agonist activity
fold more effective inhibition than dTrp^12-PTH(7-34)-1894 (PTHR1 [2]): five
IC50 (PTHR1 [2]; pIC50, inhibition of cAMP signal induced by PTH(1-34)): 100 nM
apparent PTHR1 affinity compared with dTrp^12-PTH(7-34)-1894 (PTHR1 (hPTHR1)): at least as strong
Compound: CC[C@H](C)[C@H](N)C(=O)N[C@@H](CCC(N)=O)C(=O)N[C@@H](CC(C)C)C(=O)N[C@@H](CCSC)C(=O)N[C@@H](Cc1c[nH]cn1)C(=O)N[C@@H](CCC(N)=O)C(=O)N[C@@H](CCCNC(=N)N)C(=O)N[C@@H](C)C(=O)N[C@@H](CCCCN)C(=O)N[C@@H](Cc1c[nH]c2ccccc12)C(=O)N[C@H](C(=O)N[C@@H](CCC(N)=O)C(=O)N[C@@H](CC(=O)O)C(=O)N[C@@H](C)C(=O)N[C@@H](CCCNC(=N)N)C(=O)N[C@@H](CCCNC(=N)N)C(=O)N[C@@H](CCCNC(=N)N)C(=O)N[C@@H](C)C(=O)N[C@@H](Cc1ccccc1)C(=O)N[C@@H](CC(C)C)C(=O)N[C@@H](Cc1c[nH]cn1)C(=O)N[C@@H](CCCCN)C(=O)N[C@@H](CC(C)C)C(=O)N[C@H](C(=O)N[C@@H](C)C(=O)N[C@@H](CCC(=O)O)C(=O)N[C@H](C(=O)N[C@@H](Cc1c[nH]cn1)C(=O)N[C@H](C(=O)N[C@@H](C)C(=O)N[C@@H](CCC(=O)O)C(=O)N[C@H](C(N)=O)[C@@H](C)CC)[C@@H](C)O)[C@@H](C)CC)[C@@H](C)CC)[C@@H](C)CC [compound 1950, LA-PTH(5-36)] (H-IQLMHQRAKWIQDARRRAFLHKLIAEIHTAEI-NH2; N-terminus assumed)

ligand internalization (TMR fluorescence) (PTHR1 [3]): did not internalize
Compound: CC[C@H](C)[C@H](N)C(=O)N[C@@H](CCC(N)=O)C(=O)N[C@@H](CC(C)C)C(=O)N[C@@H](CCSC)C(=O)N[C@@H](Cc1c[nH]cn1)C(=O)N[C@@H](CCC(N)=O)C(=O)N[C@@H](CCCNC(=N)N)C(=O)N[C@H](Cc1c[nH]c2ccccc12)C(=O)N[C@@H](CCCCNC(=O)c1ccc2c(c1)C(=O)OC21c2ccc(N(C)C)cc2Oc2cc(N(C)C)ccc21)C(=O)N[C@@H](Cc1c[nH]c2ccccc12)C(=O)N[C@H](C(=O)N[C@@H](CCC(N)=O)C(=O)N[C@@H](CC(=O)O)C(=O)N[C@@H](C)C(=O)N[C@@H](CCCNC(=N)N)C(=O)N[C@@H](CCCNC(=N)N)C(=O)N[C@@H](CCCNC(=N)N)C(=O)N[C@@H](C)C(=O)N[C@@H](Cc1c[nH]c2ccccc12)C(=O)N[C@@H](CC(C)C)C(=O)N[C@@H](Cc1c[nH]cn1)C(=O)N[C@@H](CCCCN)C(=O)N[C@@H](CC(C)C)C(=O)N[C@H](C(=O)N[C@@H](C)C(=O)N[C@@H](CCC(=O)O)C(=O)N[C@H](C(=O)N[C@@H](Cc1c[nH]cn1)C(=O)N[C@H](C(=O)N[C@@H](C)C(=O)N[C@@H](CCC(=O)O)C(=O)N[C@H](C(N)=O)[C@@H](C)CC)[C@@H](C)O)[C@@H](C)CC)[C@@H](C)CC)[C@@H](C)CC [compound 1953, TMR-dW12, W23-LA-PTH(5-36)] (H-IQLMHQR[dW]K(5TAMRA)WIQDARRRAWLHKLIAEIHTAEI-NH2; N-terminus assumed)

dissociation from the PTHR1 compared with ^125I-Tyr^36-PTHrP(5-36)-836 and ^125I-M-PTH(1-15)-779 (PTHR1 [4]): dissociated more slowly
Compound: ^125I-Nle^8, dTrp^12, Trp^23, Tyr^36-LA-PTH(5-36)-1954
